Experimental data as given in US20230233469A1, “SEMI-SOLID FORMULATION FOR VOLUNTARY ORAL ADMINISTRATION OF BIOACTIVE COMPOUNDS TO RODENTS” (priority 2020, published 2023).

Conditions: 80 mg/Kg body weight in semi-solid pill
Text: Data are presented as mean±S.E.M. (n=6-8 experimental group).

CC(=O)CC(c1ccccc1)c1c(O)c2ccccc2oc1=O (centres unmarked) [warfarin]
day of euthanasia for critical signs of illness (e.g. bleeding): 8 days | day post-administration from which poor health status and evident signs of toxicity appeared: 4 days
